According to patent publication US4291175A, “1-Hydroxymethyl-11-deoxy-15-hydroxy-prosten-1-ol-derivatives” (American Cyanamid Company, priority 1980, dated 1981):

Key:
Type in all cases: in vivo
Conditions in all cases: Konzett data
5-HT = assay: Konzett test, 5-HT (bronchodilator activity)
Ach = assay: Konzett test, Ach (bronchodilator activity)
Hist = assay: Konzett test, Hist (bronchodilator activity)

## CCCCCC(C)(O)/C=C/C1C(O)CC(=O)C1C/C=C\CCCCO (racemic) [dl-1,11,15-trihydroxymethyl-9-oxo-15-methyl-5-cis-13-trans prostadiene]
5-HT
  5-HT (ED50 g/kg): 0.0083 g/kg
Ach
  Ach (ED50 g/kg): 0.0043 g/kg
Hist
  Hist (ED50 g/kg): 0.00075 g/kg
